Peptide text beside a SMILES is read from it.
Key:
[1] = Solubility of the single peptides in water and DMSO; format: physicochemical; details: single peptide
Experimental: In the scope of the present invention peptides are characterised by their solubility. Peptides which are soluble in an aqueous solution less than 100 μg/ml are considered hydrophobic. On the other hand hydrophilic peptides dissolve in a buffered aqueous solution in concentration over 100 μg/ml. Hydrophilic peptides may further be divided into cationic (>20% basic amino acids including lysine, arginine, histidine), anionic (>20% acidic amino acids including aspartic acid, glutamic acid) and hydroxyl-rich peptides (>30% —OH containing amino acids like serine, threonine, tyrosine).
The peptide mixture contains 6 peptides (see table 1), which show a broad range of solubility. […] Peptides 1236, 1240, and 1242 can sequentially be dissolved in water, provided that the final pH is adjusted to pH 8.5. At lower pH a gel is formed presumably due to charge interactions and/or hydrogen bond formation. This gel can not be sterile filtered as it blocks the filter immediately. However, upon addition of poly-L-arginine (pR) to the aqueous solution of the three peptides a precipitate forms that makes sterile filtration of the solution impossible.
As with the formulation of example 1, for the manufacturing of a suspension formulation it is necessary first to dissolve peptides 83 and 84 in an aqueous buffer solution and peptides 87, 89, and 1426 in DMSO. After sterile filtration the solutions can be combined to form the final suspension.

[2] = suspension formulation stored at room temperature (Figure C)

Row | Compound | solubility in DMSO [1] | solubility in water [1] | solubility in water ([1]; listed as Ipep 84) | degradation [2]
1 | CC[C@H](C)[C@H](NC(=O)[C@H](CCC(N)=O)NC(=O)CNC(=O)CNC(=O)CNC(=O)[C@@H]1CCCN1C(=O)[C@H](Cc1ccccc1)NC(=O)[C@@H](N)CCCCN)C(=O)N[C@H](C(=O)NCC(=O)NCC(=O)N[C@H](C(=O)N[C@@H](Cc1ccc(O)cc1)C(=O)N[C@@H](CC(C)C)C(=O)N[C@@H](CC(C)C)C(=O)N1CCC[C@H]1C(=O)N[C@@H](CCCNC(=N)N)C(=O)N[C@@H](CCCNC(=N)N)C(=O)NCC(=O)N1CCC[C@H]1C(=O)N[C@@H](CCCNC(=N)N)C(=O)N[C@@H](CC(C)C)C(=O)O)C(C)C)C(C)C [Peptide 83] (H-KFPGGGQIVGGVYLLPRRGPRL-OH; N-terminus and C-terminus assumed) | soluble | soluble |  | 
2 | CC(C)C[C@H](NC(=O)[C@@H](NC(=O)[C@H](CC(C)C)NC(=O)[C@@H](NC(=O)[C@H](CCCCN)NC(=O)[C@H](Cc1ccc(O)cc1)NC(=O)CN)C(C)C)C(C)C)C(=O)N[C@@H](CC(N)=O)C(=O)N1CCC[C@H]1C(=O)N[C@@H](CO)C(=O)N[C@H](C(=O)N[C@@H](C)C(=O)N[C@@H](C)C(=O)N[C@H](C(=O)O)[C@@H](C)O)C(C)C [Peptide 84] | soluble | soluble | water soluble | 
3 | CC[C@H](C)[C@H](NC(=O)[C@H](Cc1ccc(O)cc1)NC(=O)CNC(=O)[C@H](CCSC)NC(=O)[C@H](CC(C)C)NC(=O)[C@@H](N)CC(=O)O)C(=O)N1CCC[C@H]1C(=O)N[C@@H](C)C(=O)N[C@H](C(=O)O)C(C)C [Peptide 87] (H-DLMGYIPAV-OH; N-terminus and C-terminus assumed) | dissolve easily in DMSO | poorly water soluble |  | 
4 | CC[C@H](C)[C@H](N)C(=O)N[C@@H](CC(=O)O)C(=O)N[C@@H](CCC(=O)O)C(=O)N[C@@H](CC(C)C)C(=O)N[C@@H](CCCCN)C(=O)N[C@H](C(=O)N[C@@H](CC(N)=O)C(=O)N[C@@H](CO)C(=O)N[C@@H](CO)C(=O)N[C@@H](CC(C)C)C(=O)N[C@@H](CC(C)C)C(=O)N[C@H](C(=O)N[C@@H](CO)C(=O)N[C@H](C(=O)N[C@@H](CC(C)C)C(=O)N[C@H](C(=O)N[C@@H](Cc1ccc(O)cc1)C(=O)N[C@@H](Cc1c[nH]cn1)C(=O)N[C@H](C(=O)N[C@H](C(=O)O)C(C)C)C(C)C)[C@@H](C)O)[C@@H](C)CC)[C@@H](C)O)[C@@H](C)O [Peptide 1235] (H-IDELKTNSSLLTSILTYHVV-OH; N-terminus and C-terminus assumed) | only dissolve in DMSO | hydrophobic |  | 
5 | CC[C@H](C)[C@H](NC(=O)[C@H](CC(N)=O)NC(=O)[C@@H](NC(=O)[C@@H](NC(=O)CNC(=O)[C@H](C)NC(=O)[C@H](C)NC(=O)[C@H](C)NC(=O)[C@H](CCC(N)=O)NC(=O)[C@H](C)NC(=O)[C@@H](NC(=O)CNC(=O)[C@H](C)NC(=O)CNC(=O)[C@H](CO)NC(=O)CNC(=O)[C@@H](N)[C@@H](C)O)[C@@H](C)CC)[C@@H](C)O)C(C)C)C(=O)O [Peptide 1236] | does not dissolve in DMSO | slowly dissolves in water |  | 
6 | CC[C@H](C)[C@H](NC(=O)[C@@H](NC(=O)[C@H](C)NC(=O)[C@@H](NC(=O)[C@H](CO)NC(=O)[C@H](CO)NC(=O)[C@H](CCCCN)NC(=O)[C@H](CC(C)C)NC(=O)[C@H](CC(=O)O)NC(=O)[C@H](CO)NC(=O)[C@@H](N)C(C)C)[C@@H](C)O)C(C)C)C(=O)N1CCC[C@H]1C(=O)NCC(=O)N[C@@H](Cc1ccc(O)cc1)C(=O)N1CCC[C@H]1C(=O)N[C@H](C(=O)N[C@@H](C)C(=O)NCC(=O)N[C@@H](CCC(N)=O)C(=O)N[C@H](C(=O)O)C(C)C)C(C)C [Peptide 1240] (H-VSDLKSSTAVIPGYPVAGQV-OH; N-terminus and C-terminus assumed) | can also be dissolved in DMSO | water soluble |  | 
7 | CC(C)C[C@H](NC(=O)[C@H](Cc1ccccc1)NC(=O)[C@@H](N)CC(N)=O)C(=O)N[C@@H](CC(C)C)C(=O)N1CCC[C@H]1C(=O)N[C@@H](CC(=O)O)C(=O)N[C@@H](C)C(=O)N[C@@H](CCC(N)=O)C(=O)N[C@@H](C)C(=O)N[C@@H](C)C(=O)N[C@@H](C)C(=O)N[C@@H](C)C(=O)NCC(=O)N[C@@H](Cc1ccccc1)C(=O)N[C@@H](C)C(=O)N[C@@H](CO)C(=O)N[C@@H](CCCCN)C(=O)O [Peptide 1241] (H-NFLLPDAQAAAAGFASK-OH; N-terminus and C-terminus assumed) | only dissolve in DMSO | hydrophobic |  | 
8 | CC[C@H](C)[C@H](NC(=O)[C@H](CC(N)=O)NC(=O)[C@@H](NC(=O)[C@H](CC(N)=O)NC(=O)[C@@H](N)Cc1ccc(O)cc1)[C@@H](C)CC)C(=O)N[C@@H](CO)C(=O)N[C@@H](CC(C)C)C(=O)N1CCC[C@H]1C(=O)N[C@@H](CO)C(=O)N[C@@H](Cc1ccc(O)cc1)C(=O)N[C@@H](Cc1ccc(O)cc1)C(=O)N1CCC[C@H]1C(=O)N[C@@H](CC(=O)O)C(=O)N[C@@H](CCC(N)=O)C(=O)N[C@@H](CCCCN)C(=O)N[C@@H](CO)C(=O)N[C@@H](CC(C)C)C(=O)N[C@@H](CCC(=O)O)C(=O)N[C@@H](CC(N)=O)C(=O)N[C@@H](Cc1ccc(O)cc1)C(=O)O [Peptide 1242] (H-YNINISLPSYYPDQKSLENY-OH; N-terminus and C-terminus assumed) | can also be dissolved in DMSO | water soluble |  | 
9 | CC[C@H](C)[C@H](NC(=O)CNC(=O)[C@H](CO)NC(=O)[C@@H](NC(=O)[C@H](Cc1ccccc1)NC(=O)[C@H](CC(N)=O)NC(=O)[C@H](Cc1c[nH]c2ccccc12)NC(=O)[C@H](CCSC)NC(=O)[C@@H](N)Cc1c[nH]cn1)[C@@H](C)CC)C(=O)N[C@@H](CCC(N)=O)C(=O)N[C@@H](Cc1ccc(O)cc1)C(=O)N[C@@H](CC(C)C)C(=O)N[C@@H](C)C(=O)NCC(=O)N[C@@H](CC(C)C)C(=O)N[C@@H](CO)C(=O)N[C@H](C(=O)N[C@@H](CC(C)C)C(=O)N1CCC[C@H]1C(=O)NCC(=O)N[C@@H](CC(N)=O)C(=O)N1CCC[C@H]1C(=O)N[C@@H](C)C(=O)O)[C@@H](C)O [Peptide 1426] (H-HMWNFISGIQYLAGLSTLPGNPA-OH; N-terminus and C-terminus assumed) | only soluble in DMSO |  |  | 
10 | CC[C@H](C)[C@H](N)C(=O)NCC(=O)N[C@@H](CC(C)C)C(=O)NCC(=O)N[C@@H](CCCCN)C(=O)N[C@H](C(=O)N[C@@H](CC(C)C)C(=O)N[C@H](C(=O)N[C@@H](CC(=O)O)C(=O)N[C@H](C(=O)N[C@@H](CC(C)C)C(=O)N[C@@H](C)C(=O)NCC(=O)N[C@@H](Cc1ccc(O)cc1)C(=O)NCC(=O)N[C@@H](C)C(=O)NCC(=O)N[C@H](C(=O)N[C@@H](C)C(=O)NCC(=O)N[C@@H](C)C(=O)N[C@@H](CC(C)C)C(=O)N[C@H](C(=O)N[C@@H](C)C(=O)N[C@@H](Cc1ccccc1)C(=O)N[C@@H](CCCCN)C(=O)O)C(C)C)C(C)C)[C@@H](C)CC)C(C)C)C(C)C [Peptide 1798] (H-IGLGKVLVDILAGYGAGVAGALVAFK-OH; N-terminus and C-terminus assumed) |  | water soluble on its own |  | 
11 | CC[C@H](C)[C@H](NC(=O)[C@H](CCC(N)=O)NC(=O)CNC(=O)CNC(=O)CNC(=O)[C@@H]1CCCN1C(=O)[C@H](Cc1ccccc1)NC(=O)[C@@H](N)CCCCN)C(=O)N[C@H](C(=O)NCC(=O)NCC(=O)N[C@H](C(=O)N[C@@H](Cc1ccc(O)cc1)C(=O)N[C@@H](CC(C)C)C(=O)N[C@@H](CC(C)C)C(=O)N1CCC[C@H]1C(=O)N[C@@H](CCCNC(=N)N)C(=O)N[C@@H](CCCNC(=N)N)C(=O)NCC(=O)N1CCC[C@H]1C(=O)N[C@@H](CCCNC(=N)N)C(=O)N[C@@H](CC(C)C)C(=O)NCC(=O)N[C@H](C(=O)N[C@@H](CCCNC(=N)N)C(=O)N[C@@H](C)C(=O)N[C@H](C(=O)N[C@@H](CCCNC(=N)N)C(=O)N[C@@H](CCCCN)C(=O)O)[C@@H](C)O)C(C)C)C(C)C)C(C)C [Peptide 1835] (H-KFPGGGQIVGGVYLLPRRGPRLGVRATRK-OH; N-terminus and C-terminus assumed) |  | water soluble |  | 
12 | CC[C@H](C)[C@H](NC(=O)[C@@H](NC(=O)[C@H](Cc1ccccc1)NC(=O)[C@H](CC(N)=O)NC(=O)[C@@H](NC(=O)[C@@H](NC(=O)[C@H](CS)NC(=O)[C@@H]1CCCN1C(=O)[C@H](Cc1ccc(O)cc1)NC(=O)[C@H](Cc1c[nH]cn1)NC(=O)[C@H](Cc1c[nH]c2ccccc12)NC(=O)[C@H](CC(C)C)NC(=O)[C@H](CCCNC(=N)N)NC(=O)[C@H](Cc1ccc(O)cc1)NC(=O)[C@@H]1CCCN1C(=O)[C@H](Cc1ccc(O)cc1)NC(=O)[C@@H](N)CC(=O)O)[C@@H](C)O)C(C)C)[C@@H](C)O)C(=O)N[C@@H](Cc1ccccc1)C(=O)N[C@@H](CCCCN)C(=O)N[C@H](C(=O)O)C(C)C [Peptide 1846] (H-DYPYRLWHYPCTVNFTIFKV-OH; N-terminus and C-terminus assumed) |  |  |  | oxidation of Ipep 1846 to its dimer

— patent publication US20080145383A1, “Method for Solubilizing Peptide Mixtures” (priority 2004, published 2008)
